pIC50: −log10 of the molar value.
Target: T1, CDK2/CycE (Homo sapiens, UniProt P24941)
T1 construct: GST; purchased ProQinase GmbH (Freiburg, Germany); host or cells: insect cells (Sf9)
Assay: CDK2/CycE high ATP kinase assay (TR-FRET, 2 mM ATP)
Assay type: biochemical
Details: Method 2b
Procedure: 2b. CDK2/CycE High ATP Kinase Assay:
CDK2/CycE-inhibitory activity of compounds of the present invention at 2 mM adenosine-tri-phosphate (ATP) was quantified employing the CDK2/CycE TR-FRET (TR-FRET=Time Resolved Fluorescence Energy Transfer) assay as described in the following paragraphs.
Recombinant fusion proteins of GST and human CDK2 and of GST and human CycE, expressed in insect cells (Sf9) and purified by Glutathion-Sepharose affinity chromatography, were purchase from ProQinase GmbH (Freiburg, Germany). As substrate for the kinase reaction biotinylated peptide biotin-Ttds-[…] (C-terminus in amid form) was used which can be purchased e.g. form the company JERINI peptide technologies (Berlin, Germany).
For the assay 50 nl of a 100 fold concentrated solution of the test compound in DMSO was pipetted into a black low volume 384 well microtiter plate (Greiner Bio-One, Frickenhausen, Germany), 2 μl of a solution of CDK2/CycE in aqueous assay buffer [50 mM Tris/HCl pH 8.0, 10 mM MgCl2, 1.0 mM dithiothreitol, 0.1 mM sodium ortho-vanadate, 0.01% (v/v) Nonidet-P40 (Sigma)] were added and the mixture was incubated for 15 min at 22° C. to allow pre-binding of the test compounds to the enzyme before the start of the kinase reaction. Then the kinase reaction was started by the addition of 3 μl of a solution ATP (3.33 mM=>final conc. in the 5 μl assay volume is 2 mM) and substrate (1.25 μM=>final conc. in the 5 μl assay volume is 0.75 μM) in assay buffer and the resulting mixture was incubated for a reaction time of 25 min at 22° C. The concentration of CDK2/CycE was adjusted depending of the activity of the enzyme lot and was chosen appropriate to have the assay in the linear range, typical concentrations were in the range of 15 ng/ml. The reaction was stopped by the addition of 5 μl of a solution of TR-FRET detection reagents (0.2 μM streptavidine-XL665 [Cisbio Bioassays, Codolet, France] and 1 nM anti-RB(pSer807/pSer811)-antibody from BD Pharmingen [#558389] and 1.2 nM LANCE EU-W1024 labeled anti-mouse IgG antibody [Perkin-Elmer, product no. AD0077, as an alternative a Terbium-cryptate-labeled anti-mouse IgG antibody from Cisbio Bioassays can be used]) in an aqueous EDTA-solution (100 mM EDTA, 0.2% (w/v) bovine serum albumin in 100 mM HEPES/NaOH pH 7.0).
The resulting mixture was incubated 1 h at 22° C. to allow the formation of complex between the phosphorylated biotinylated peptide and the detection reagents. Subsequently the amount of phosphorylated substrate was evaluated by measurement of the resonance energy transfer from the Eu-chelate to the streptavidine-XL. Therefore, the fluorescence emissions at 620 nm and 665 nm after excitation at 350 nm were measured in a TR-FRET reader, e.g. a Rubystar (BMG Labtechnologies, Offenburg, Germany) or a Viewlux (Perkin-Elmer). The ratio of the emissions at 665 nm and at 622 nm was taken as the measure for the amount of phosphorylated substrate.

| SMILES | pIC50 |
| --- | --- |
| COc1cc(F)ccc1-c1cc(Nc2cc(CS(C)(=N)=O)c(Br)c(C)n2)ncc1F (racemic) [Example 5, (rac)-5-Bromo-N-[5-fluoro-4-(4-fluoro-2-methoxyphenyl)pyridin-2-yl]-6-methyl-4-[(S-methylsulfonimidoyl)methyl]pyridin-2-amine] | 5.75 |
| CCOC(=O)N=S(C)(=O)Cc1cc(Nc2cc(-c3ccc(F)cc3OC)c(F)cn2)nc(OC)c1 (racemic) [Example 15, (rac)-ethyl{[(2-{[5-fluoro-4-(4-fluoro-2-methoxyphenyl)pyridin-2-yl]amino}-6-methoxypyridin-4-yl)methyl](methyl)oxido-λ^6-sulfanylidene}carbamate] | 6.91 |
| CCOc1cc(F)ccc1-c1cc(Nc2cc(CS(C)(=O)=NC(=O)C(F)(F)F)cc(F)n2)ncc1F (racemic) [Example 27, (rac)-N-{[(2-{[4-(2-Ethoxy-4-fluoro-phenyl)-5-fluoropyridin-2-yl]amino}-6-fluoropyridin-4-yl)methyl]-(methyl)oxido-λ^6-sulfanylidene}-2,2,2-trifluoroacetamide] | ≤ 4.70 |
| CCS(=N)(=O)Cc1ccnc(Nc2cc(-c3ccc(F)cc3OC)c(F)cn2)c1 (racemic) [Example 30, (rac)-N-{4-[(S-Ethylsulfonimidoyl)-methyl]pyridin-2-yl}-5-fluoro-4-(4-fluoro-2-methoxyphenyl)pyridin-2-amine] | 6.52 |
| COc1cc(F)ccc1-c1cc(Nc2cc(CS(C)(=N)=O)cc(C(F)F)n2)ncc1F (racemic) [Example 31, (rac)-N-{6-(Difluoromethyl)-4-[(S-methylsulfonimidoyl)methyl]pyridin-2-yl}-5-fluoro-4-(4-fluoro-2-methoxyphenyl)pyridin-2-amine] | 6.64 |
| COc1cc(F)ccc1-c1cc(Nc2cc(CS(C)(=N)=O)cc(F)n2)ncc1F (single isomer, unassigned; (+)) [Example 19, (+)-5-Fluoro-4-(4-fluoro-2-methoxyphenyl)-N-{6-fluoro-4-[(S-methylsulfonimidoyl)methyl]pyridin-2-yl}pyridin-2-amine] | 5.86 |
| COc1cc(F)ccc1-c1cc(Nc2cc(CS(C)(=O)=NC(=O)C(F)(F)F)cc(C(F)(F)F)n2)ncc1F (single isomer, unassigned; (+)) [Example 24, (+)-2,2,2-Trifluoro-N-[{[2-{[5-fluoro-4-(4-fluoro-2-methoxyphenyl)pyridin-2-yl]amino}-6-(trifluoromethyl)-pyridin-4-yl]methyl}(methyl)oxido-λ^6-sulfanylidene]acetamide] | 5.40 |
| CCOc1cc(F)ccc1-c1cc(Nc2cc(CS(C)(=N)=O)cc(F)n2)ncc1F (single isomer, unassigned; (+)) [Example 28, (+)-4-(2-Ethoxy-4-fluorophenyl)-5-fluoro-N-{6-fluoro-4-[(S-methylsulfonimidoyl)methyl]pyridin-2-yl}pyridin-2-amine] | 5.93 |
| COc1cc(F)ccc1-c1cc(Nc2cc(CS(C)(=N)=O)cc(F)n2)ncc1F (single isomer, unassigned; (-)) [Example 20, (−)-5-Fluoro-4-(4-fluoro-2-methoxyphenyl)-N-{6-fluoro-4-[(S-methylsulfonimidoyl)methyl]pyridin-2-yl}pyridin-2-amine] | 6.09 |
| COc1cc(F)ccc1-c1cc(Nc2cc(CS(C)(=O)=NC(=O)C(F)(F)F)cc(C(F)(F)F)n2)ncc1F (single isomer, unassigned; (-)) [Example 25, (−)-2,2,2-Trifluoro-N-[{[2-{[5-fluoro-4-(4-fluoro-2-methoxyphenyl)pyridin-2-yl]amino}-6-(trifluoromethyl)-pyridin-4-yl]methyl}(methyl)oxido-λ^6-sulfanylidene]acetamide] | 5.58 |
| CCOc1cc(F)ccc1-c1cc(Nc2cc(CS(C)(=N)=O)cc(F)n2)ncc1F (single isomer, unassigned; (-)) [Example 29, (−)-4-(2-Ethoxy-4-fluorophenyl)-5-fluoro-N-{6-fluoro-4-[(S-methylsulfonimidoyl)methyl]pyridin-2-yl}pyridin-2-amine] | 5.77 |

Source: patent US9650340B2, “5-fluoro-N-(pyridin-2-yl)pyridin-2-amine derivatives containing a sulfoximine group” (BAYER PHARMA AKTIENGESELLSCHAFT, priority 2012, dated 2017)
